Patent EP4740948A1 (Dong Wha Pharm. Co., Ltd., priority 2023, dated 2025)

How the values were obtained:
MIA-PaCa-2 cells = assay: Cancer cell proliferation inhibition (Cell Counting Kit-8), pancreatic cancer cell line; format: cell-based; conditions: Homo sapiens, MIA PaCa-2, 264 h, 1000 nM, cultured seven to 11 days; read-out: % inhibition rate MIA-Paca2
How it was run: (§1)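 After plating 100 to 1,000 cells per well in medium with 10% fetal bovine serum, each line receives 1000 nM compound and is cultured for seven to 11 days. Growth inhibition is derived from CCK-8 signal compared with control cultures.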

G401 cells = assay: Cancer cell proliferation inhibition (Cell Counting Kit-8), rhabdoid tumor cell line; format: cell-based; conditions: 1000 nM, cultured seven to 11 days; for inhibition at 1 µM: Homo sapiens, G-401, 264 h, read-out: % inhibition rate G401; for % inhibition rate G401: 1 µM
How it was run: (§2)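 Single 1000 nM dose of test substance, applied to cells seeded at 100–1,000 per well in 10% FBS medium, then culture for seven to 11 days. CCK-8 read-out; inhibition rate expressed as percent relative to untreated control.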

EZH1 = EZH1 (Homo sapiens, UniProt Q92800); assay: AlphaLISA enzyme activity inhibition, EZH1; format: biochemical; conditions: for inhibition at 0.005 µM: 5nM test substance; for inhibition at 0.01 µM: 10nM test substance
EZH1, sequence (Q92800 whole entry, species assumed): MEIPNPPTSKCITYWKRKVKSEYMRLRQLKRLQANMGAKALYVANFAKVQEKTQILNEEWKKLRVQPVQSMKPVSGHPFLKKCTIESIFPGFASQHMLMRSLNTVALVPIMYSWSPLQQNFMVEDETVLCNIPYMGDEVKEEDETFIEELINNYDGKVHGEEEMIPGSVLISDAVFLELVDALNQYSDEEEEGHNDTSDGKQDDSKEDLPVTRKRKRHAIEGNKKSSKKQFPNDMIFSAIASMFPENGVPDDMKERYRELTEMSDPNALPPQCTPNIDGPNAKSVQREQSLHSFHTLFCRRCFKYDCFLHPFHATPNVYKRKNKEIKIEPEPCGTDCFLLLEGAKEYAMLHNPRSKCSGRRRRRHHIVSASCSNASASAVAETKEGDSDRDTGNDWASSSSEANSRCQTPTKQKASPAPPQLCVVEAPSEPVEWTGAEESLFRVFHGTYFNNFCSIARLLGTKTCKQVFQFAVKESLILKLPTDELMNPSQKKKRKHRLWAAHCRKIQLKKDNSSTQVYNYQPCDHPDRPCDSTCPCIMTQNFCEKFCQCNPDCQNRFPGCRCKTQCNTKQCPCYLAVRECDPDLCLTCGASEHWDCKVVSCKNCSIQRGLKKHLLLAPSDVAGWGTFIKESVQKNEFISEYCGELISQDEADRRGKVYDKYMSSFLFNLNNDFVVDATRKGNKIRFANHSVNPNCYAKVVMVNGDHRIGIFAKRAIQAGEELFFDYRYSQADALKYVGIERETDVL
EZH1, sequence (O75530 whole entry partner, species assumed): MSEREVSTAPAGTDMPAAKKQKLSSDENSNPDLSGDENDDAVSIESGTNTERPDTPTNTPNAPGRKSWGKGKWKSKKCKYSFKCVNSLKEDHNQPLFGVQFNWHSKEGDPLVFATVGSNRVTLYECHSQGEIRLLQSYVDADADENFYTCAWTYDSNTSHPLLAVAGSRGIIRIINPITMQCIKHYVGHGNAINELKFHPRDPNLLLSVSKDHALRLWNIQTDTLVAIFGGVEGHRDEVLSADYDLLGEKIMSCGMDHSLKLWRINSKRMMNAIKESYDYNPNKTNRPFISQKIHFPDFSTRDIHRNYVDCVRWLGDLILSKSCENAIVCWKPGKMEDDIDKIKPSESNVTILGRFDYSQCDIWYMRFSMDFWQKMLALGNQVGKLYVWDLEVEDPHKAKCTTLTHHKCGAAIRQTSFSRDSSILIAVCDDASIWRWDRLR
EZH1, sequence (Q15022 whole entry partner, species assumed): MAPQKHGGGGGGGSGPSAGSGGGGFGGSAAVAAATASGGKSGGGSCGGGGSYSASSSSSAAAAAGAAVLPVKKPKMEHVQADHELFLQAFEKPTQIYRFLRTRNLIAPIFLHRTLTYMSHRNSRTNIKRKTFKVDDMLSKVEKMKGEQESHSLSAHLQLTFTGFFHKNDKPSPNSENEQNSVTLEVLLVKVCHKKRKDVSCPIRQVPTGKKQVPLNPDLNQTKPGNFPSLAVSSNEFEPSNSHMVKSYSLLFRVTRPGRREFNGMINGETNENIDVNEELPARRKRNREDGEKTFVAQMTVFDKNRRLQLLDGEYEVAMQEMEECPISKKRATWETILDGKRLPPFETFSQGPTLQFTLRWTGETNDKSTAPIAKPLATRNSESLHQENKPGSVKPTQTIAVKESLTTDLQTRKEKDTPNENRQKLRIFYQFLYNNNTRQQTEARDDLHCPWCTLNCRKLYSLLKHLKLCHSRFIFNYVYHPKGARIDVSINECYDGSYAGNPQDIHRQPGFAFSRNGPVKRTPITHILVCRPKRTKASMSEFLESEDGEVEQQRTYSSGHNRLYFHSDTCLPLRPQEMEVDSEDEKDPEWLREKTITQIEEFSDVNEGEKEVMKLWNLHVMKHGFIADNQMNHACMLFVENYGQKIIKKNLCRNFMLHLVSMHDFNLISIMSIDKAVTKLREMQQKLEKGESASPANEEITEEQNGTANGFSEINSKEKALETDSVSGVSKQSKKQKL
How it was run: (§3)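 Enzyme inhibition rate was calculated relative to DMSO from AlphaLISA signal, with acceptor beads added after a 2 h methylation reaction and donor beads 1 h later. Each enzyme, EZH1 or EZH2, was pre-mixed with compound (final 5 nM or 10 nM) in Tris buffer pH 8.0 before histone H3 peptide and SAM initiated the reaction.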

NCI-H1299 cells = assay: Cancer cell proliferation inhibition (Cell Counting Kit-8), lung cancer cell line; format: cell-based; conditions: Homo sapiens, NCI-H1299, 264 h, 1000 nM, cultured seven to 11 days; read-out: % inhibition rate NCI-H129 9
How it was run: as §1

MKN-45 cells = assay: Cancer cell proliferation inhibition (Cell Counting Kit-8), gastric cancer cell line; format: cell-based; conditions: Homo sapiens, MKN-45, 264 h, 1000 nM, cultured seven to 11 days; read-out: % inhibition rate MKN -45
How it was run: as §2

Lovo cells = assay: Cancer cell proliferation inhibition (Cell Counting Kit-8), colorectal cancer cell line; format: cell-based; conditions: 1000 nM, cultured seven to 11 days; for inhibition at 1 µM: Homo sapiens, LoVo, 264 h, read-out: % inhibition rate LoVo
How it was run: as §1

SW-13 cells = assay: Cancer cell proliferation inhibition (Cell Counting Kit-8), adrenal cancer cell line; format: cell-based; conditions: Homo sapiens, SW13, 264 h, 1000 nM, cultured seven to 11 days; read-out: % inhibition rate SW-13
How it was run: as §1

EZH2 = EZH2 (Homo sapiens, UniProt Q15910); assay: AlphaLISA enzyme activity inhibition, EZH2; format: biochemical; conditions: for inhibition at 0.005 µM: 5nM test substance; for inhibition at 0.01 µM: 10nM test substance
EZH2, sequence (Q15910 whole entry, species assumed): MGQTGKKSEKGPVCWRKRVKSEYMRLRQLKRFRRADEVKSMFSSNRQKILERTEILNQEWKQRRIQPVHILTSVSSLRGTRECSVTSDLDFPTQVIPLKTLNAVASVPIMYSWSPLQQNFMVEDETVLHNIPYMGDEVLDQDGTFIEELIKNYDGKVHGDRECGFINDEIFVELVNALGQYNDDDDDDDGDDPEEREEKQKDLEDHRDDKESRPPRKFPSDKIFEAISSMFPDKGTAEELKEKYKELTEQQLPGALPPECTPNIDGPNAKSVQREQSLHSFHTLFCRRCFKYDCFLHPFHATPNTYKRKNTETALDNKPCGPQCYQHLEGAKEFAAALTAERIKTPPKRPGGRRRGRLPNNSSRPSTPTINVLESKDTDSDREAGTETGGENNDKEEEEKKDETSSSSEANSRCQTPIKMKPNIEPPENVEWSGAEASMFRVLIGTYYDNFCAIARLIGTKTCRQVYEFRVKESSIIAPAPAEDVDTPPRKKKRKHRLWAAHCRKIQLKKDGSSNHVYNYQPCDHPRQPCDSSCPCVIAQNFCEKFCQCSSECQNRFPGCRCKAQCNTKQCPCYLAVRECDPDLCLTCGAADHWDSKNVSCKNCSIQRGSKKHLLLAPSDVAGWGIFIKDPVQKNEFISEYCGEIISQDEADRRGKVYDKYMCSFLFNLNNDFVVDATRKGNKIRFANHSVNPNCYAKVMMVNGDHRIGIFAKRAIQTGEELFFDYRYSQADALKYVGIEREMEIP
EZH2, sequence (O75530 whole entry partner, species assumed): as the sequence (O75530 whole entry partner, species assumed) above
EZH2, sequence (Q15022 whole entry partner, species assumed): as the sequence (Q15022 whole entry partner, species assumed) above
How it was run: as §3

SMILES | inhibition at 1 µM (MIA-PaCa-2 cells) [%] | inhibition at 1 µM (G401 cells) [%] | inhibition at 0.005 µM (EZH1) [%] | inhibition at 1 µM (NCI-H1299 cells) [%] | inhibition at 1 µM (MKN-45 cells) [%] | inhibition at 1 µM (Lovo cells) [%] | inhibition at 1 µM (SW-13 cells) [%] | inhibition at 0.005 µM (EZH2) [%] | % inhibition rate G401 (G401 cells) | inhibition at 0.01 µM (EZH1) [%] | % inhibition rate LoVo (Lovo cells; 1 µM) | inhibition at 0.01 µM (EZH2) [%]
CSc1cc(C)[nH]c(=O)c1CNC(=O)c1cc(-c2ccsc2)c2c(c1C)OC(C)([C@H]1CC[C@H](N(C)C)CC1)O2 (relative stereo) [Compound 11, 2-(trans-4-(dimethylamino)cyclohexyl)-2,4-dimethyl-N-((6-methyl-4-(methylthio)-2-oxo-1,2-dihydropyridin-3-yl)methyl)-7-(thiophen-3-yl)benzo[d][1,3]dioxole-5-carboxamide] | ≤ 30 | 30 to 70 | 82.9 | 30 to 70 | ≤ 30 | ≥ 70 | 30 to 70 | 98.9 | – | – | – | –
CSc1cc(C)[nH]c(=O)c1CNC(=O)c1cc(-c2cnc(N3CCC(F)(F)CC3)nc2)c2c(c1C)OC(C)([C@H]1CC[C@H](N(C)C)CC1)O2 (relative stereo) [Compound 8, 7-(2-(4,4-difluoropiperidin-1-yl)pyrimidin-5-yl)-2-(trans-4-(dimethylamino)cyclohexyl)-2,4-dimethyl-N-((6-methyl-4-(methylthio)-2-oxo-1,2-dihydropyridin-3-yl)methyl)benzo[d][1,3]dioxole-5-carboxamide] | ≤ 30 | 30 to 70 | 85.6 | ≤ 30 | 30 to 70 | 30 to 70 | 30 to 70 | 96.1 | – | – | – | –
COC(CN(C)[C@H]1CC[C@H](C2(C)Oc3c(-c4ccc(N5C[C@@H](C)O[C@@H](C)C5)nc4)cc(C(=O)NCc4c(SC)cc(C)[nH]c4=O)c(C)c3O2)CC1)OC (stereo partly drawn) [Compound 31, 2-(trans-4-((2,2-dimethoxyethyl)(methyl)amino)cyclohexyl)-7-(6-((2S,6R)-2,6-dimethylmorpholino)pyridin-3-yl)-2,4-dimethyl-N-((6-methyl-4-(methylthio)-2-oxo-1,2-dihydropyridin-3-yl)methyl)benzo[d][1,3]dioxole-5-carboxamide] | ≤ 30 | 30 to 70 | 67.3 | ≤ 30 | 30 to 70 | ≥ 70 | 30 to 70 | 75.6 | – | – | – | –
CSc1cc(C)[nH]c(=O)c1CNC(=O)c1cc(-c2ccc(N3C[C@@H](C)O[C@@H](C)C3)nc2)c2c(c1C)OC(C)(C1CCN(C(C)C)CC1)O2 (single isomer, unassigned) [Compound 51] | ≤ 30 | – | 80.2 | 30 to 70 | ≤ 30 | – | 30 to 70 | 99.3 | +++ (+++: ≥70%) | 93 | +++ (+++: ≥70%) | 99.5
CSc1cc(C)[nH]c(=O)c1CNC(=O)c1cc(-c2ccc(N3C[C@@H](C)O[C@@H](C)C3)nc2)c2c(c1C)OC(C)(C1CCN(CCc3ccccc3)CC1)O2 (single isomer, unassigned) [Compound 55] | ≤ 30 | – | 31.6 | 30 to 70 | 30 to 70 | ≥ 70 | 30 to 70 | 58.2 | +++ (+++: ≥70%) | 52.2 | – | 93.3
CSc1cc(C)[nH]c(=O)c1CNC(=O)c1cc(-c2cnc(N(C)C)nc2)c2c(c1C)OC(C)(C1CCN(CC(F)(F)F)CC1)O2 (centres unmarked) [Compound 35, 7-(2-(dimethylamino)pyrimidin-5-yl)-2,4-dimethyl-N-((6-methyl-4-(methylthio)-2-oxo-1,2-dihydropyridin-3-yl)methyl)-2-(1-(2,2,2-trifluoroethyl)piperidin-4-yl)benzo[d][1,3]dioxole-5-carboxamide] | ≤ 30 | ≥ 70 | 67.7 | ≤ 30 | ≤ 30 | ≥ 70 | ≤ 30 | 94 | – | – | – | –
CSc1cc(C)[nH]c(=O)c1CNC(=O)c1cc(-c2ccc(N3C[C@@H](C)O[C@@H](C)C3)nc2)c2c(c1C)OC(C)([C@H]1CC[C@H](N(C)CCc3ccccc3)CC1)O2 (stereo partly drawn) [Compound 112, 7-(6-((2S,6R)-2,6-dimethylmorpholino)pyridin-3-yl)-2,4-dimethyl-2-(trans-4-(methyl(phenethyl)amino)cyclohexyl)-N-((6-methyl-4-(methylthio)-2-oxo-1,2-dihydropyridin-3-yl)methyl)benzo[d][1,3]dioxole-5-carboxamide] | ≤ 30 | ≥ 70 | 24.3 | ≤ 30 | 30 to 70 | ≥ 70 | 30 to 70 | 58.5 | – | 40.7 | – | 97
CSc1cc(C)[nH]c(=O)c1CNC(=O)c1cc(-c2cnc(N3CCOCC3)nc2)c2c(c1C)OC(C)(C1CCN(CC(F)(F)F)CC1)O2 (centres unmarked) [Compound 68, 2,4-dimethyl-N-((6-methyl-4-(methylthio)-2-oxo-1,2-dihydropyridin-3-yl)methyl)-7-(2-morpholinopyrimidin-5-yl)-2-(1-(2,2,2-trifluoro)piperidin-4-yl)benzo[d][1,3]dioxole-5-carboxamide] | ≤ 30 | ≥ 70 | 56.4 | ≤ 30 | 30 to 70 | ≥ 70 | 30 to 70 | 87.3 | – | 78.9 | – | 99.7
CSc1cc(C)[nH]c(=O)c1CNC(=O)c1cc(-c2ccc(N3C[C@@H](C)O[C@@H](C)C3)nc2)c2c(c1C)OC(C)(C1CCN(CC(F)(F)F)CC1)O2 (stereo partly drawn) [Compound 33, 7-(6-((2S,6R)-2,6-dimethylmorpholino)pyridin-3-yl)-2,4-dimethyl-N-((6-methyl-4-(methylthio)-2-oxo-1,2-dihydropyridin-3-yl)methyl)-2-(1-(2,2,2-trifluoroethyl)piperidin-4-yl)benzo[d][1,3]dioxole-5-carboxamide] | ≤ 30 | ≥ 70 | 37.6 | ≤ 30 | 30 to 70 | ≥ 70 | 30 to 70 | 59.1 | – | – | – | –
CSc1cc(C)[nH]c(=O)c1CNC(=O)c1cc(-c2cnc(N3CCOCC3)nc2)c2c(c1C)OC(C)(C1CCN(CC(F)(F)F)CC1)O2 (single isomer, unassigned) [Compound 69, 2,4-dimethyl-N-((6-methyl-4-(methylthio)-2-oxo-1,2-dihydropyridin-3-yl)methyl)-7-(2-morpholinopyrimidine-5-yl)-2-(1-(2,2,2-trifluoro)piperidin-4-yl)benzo [d][1,3]dioxole-5-carboxamide] | ≤ 30 | – | 71.9 | ≤ 30 | 30 to 70 | ≥ 70 | 30 to 70 | 98.2 | +++ (+++: ≥70%) | 87.9 | – | 99.6
CCCCN(C)c1ncc(-c2cc(C(=O)NCc3c(SC)cc(C)[nH]c3=O)c(C)c3c2OC(C)(C2CCN(CC(F)(F)F)CC2)O3)cn1 (centres unmarked) [Compound 99] | ≤ 30 | 30 to 70 | 37.1 | ≤ 30 | 30 to 70 | ≥ 70 | 30 to 70 | 62.4 | – | 42.9 | – | 76.5
CSc1cc(C)[nH]c(=O)c1CNC(=O)c1cc(-c2cnc(N3CCOCC3)nc2)c2c(c1C)OC(C)(C1CCN(CC(F)F)CC1)O2 (single isomer, unassigned) [Compound 71, 2-(1-(2,2-difluoroethyl)piperidin-4-yl)-2,4-dimethyl-N-((6-methyl-4-(methylthio)-2-oxo-1,2-dihydropyridin-3-yl)methyl)-7-(2-morpholinopyrimidin-5-yl)benzo[d][1,3]dioxole-5-carboxamide] | ≤ 30 | – | 68.5 | 30 to 70 | 30 to 70 | ≥ 70 | 30 to 70 | 96.1 | +++ (+++: ≥70%) | 82.8 | – | 99.5
